Assay [1] has as its target HPK1 (Homo sapiens, UniProt Q92918). Description: HPK1 kinase activity inhibition test (ADP-Glo, luminescence). The assay is classed as biochemical. The conditions noted are these: 2 μM ATP, 5 nM HPK1, read-out: IC50, inhibitory effects on HPK1 kinase activity. Summed up:
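Autophosphorylation assay without added substrate: HPK1 preincubated with compound 10 min at 25 °C, then ATP added for 60 min at 25 °C; final DMSO 0.5%. ADP measured by ADP-Glo luminescence; IC50 from four-parameter nonlinear fit.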
(ADP-Glo first removes unused ATP, then detects ADP through luciferase.)

Assay [2] deals with Human Jurkat-E6-1 cells. Nature of the assay: Detection of IL-2 production by Jurkat cells using ELISA. It counts as cell-based. The conditions noted are these: anti-CD3/anti-CD28 stimulation 24 hours, tested compound 1.0 μM, read-out: Percentage of the amount of IL-2 secreted by compound treated vs DMSO-treated cells. Summed up:
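Jurkat E6-1 cells were pre-incubated with compound for 30 min at 37 °C, then stimulated 24 h on plate-bound anti-CD3 plus soluble anti-CD28. Secreted IL-2 in supernatant was measured by sandwich ELISA (450 nm) against a standard curve and expressed as % of DMSO-treated cells.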
For orientation: In an ELISA, binding on a coated surface is turned into a signal by an enzyme label.

Sequence of HPK1 (Q92918 whole entry): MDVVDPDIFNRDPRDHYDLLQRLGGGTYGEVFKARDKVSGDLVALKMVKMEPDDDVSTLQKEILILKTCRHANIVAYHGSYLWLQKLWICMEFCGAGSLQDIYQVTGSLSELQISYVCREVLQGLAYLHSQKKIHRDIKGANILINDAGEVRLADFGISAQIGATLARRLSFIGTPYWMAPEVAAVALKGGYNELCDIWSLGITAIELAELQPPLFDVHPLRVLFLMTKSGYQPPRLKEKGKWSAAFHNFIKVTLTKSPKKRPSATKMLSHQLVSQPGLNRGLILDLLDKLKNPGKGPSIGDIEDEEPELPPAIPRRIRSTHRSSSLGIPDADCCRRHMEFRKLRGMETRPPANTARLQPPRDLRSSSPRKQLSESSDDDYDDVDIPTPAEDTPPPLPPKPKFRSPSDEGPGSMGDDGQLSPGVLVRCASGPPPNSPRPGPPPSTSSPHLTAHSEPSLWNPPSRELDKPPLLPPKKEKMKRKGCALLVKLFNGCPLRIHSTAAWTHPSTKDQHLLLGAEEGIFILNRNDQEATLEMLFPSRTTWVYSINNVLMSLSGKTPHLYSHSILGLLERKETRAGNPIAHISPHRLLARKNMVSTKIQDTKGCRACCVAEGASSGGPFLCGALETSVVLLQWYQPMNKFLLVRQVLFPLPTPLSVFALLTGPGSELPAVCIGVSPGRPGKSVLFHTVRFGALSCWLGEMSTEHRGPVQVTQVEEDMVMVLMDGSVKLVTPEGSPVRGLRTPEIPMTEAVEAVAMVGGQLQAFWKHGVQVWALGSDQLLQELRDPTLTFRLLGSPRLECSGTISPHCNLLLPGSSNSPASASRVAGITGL

As to `CN1CCN(c2ncc3cc2OCCCOc2cccc(F)c2-c2cc4c-3n[nH]c4cn2)CC1` [Compound 3, 16-fluoro-5-(4-methylpiperazin-1-yl)-7,11-dioxa-4,19,22,23-tetraazapentacyclo[16.5.2.1^2,6.0^12,17.0^21,24]hexacosa-1(23),2(26),3,5,12,14,16,18,20,24-decaene], in assay [1], the IC50 is not above 5 nM. Moreover, the activity at 1 µM in assay [2] was found to be 823%.
The matching figures for `CN1CCN(c2ccc3cc2OCCCOc2cccc(F)c2-c2cc4c-3n[nH]c4cn2)CC1` [Compound 6, 16-fluoro-5-(4-methylpiperazin-1-yl)-7,11-dioxa-19,22,23-triazapentacyclo[16.5.2.1^2,6.0^12,17.0^21,24]hexacosa-1(23),2(26),3,5,12,14,16,18,20,24-decaene]: not above 5 nM and 542%.
`CN1CCN(c2ccc3cc2OCCOCc2cccc(F)c2-c2cc4c-3n[nH]c4cn2)CC1` [Compound 9, 16-fluoro-5-(4-methylpiperazin-1-yl)-7,10-dioxa-19,22,23-triazapentacyclo[16.5.2.1^2,6.0^12,17.0^21,24]hexacosa-1(23),2(26),3,5,12,14,16,18,20,24-decaene]: the IC50 in assay [1] was not above 5 nM. Besides, the activity at 1 µM in assay [2] was 568%.

As usually defined, the IC50 is the concentration needed to halve the response being measured.
